{"source": "paper PMC9650711", "about": "“Hydroxyl-Rich Hydrophilic Endocytosis-Promoting Peptide with No Positive Charge” (Journal of the American Chemical Society, 2022)", "key": {"full-length FIBCD1": {"target": "T1, full-length FIBCD1 (Homo sapiens, UniProt Q8N539)", "T1 construct": "We overexpressed full-length FIBCD1 in CHO cells, extracted and purified the protein; host or cells: ExpiCHO (CHO) cells", "T1 sequence (Q8N539 1-461)": "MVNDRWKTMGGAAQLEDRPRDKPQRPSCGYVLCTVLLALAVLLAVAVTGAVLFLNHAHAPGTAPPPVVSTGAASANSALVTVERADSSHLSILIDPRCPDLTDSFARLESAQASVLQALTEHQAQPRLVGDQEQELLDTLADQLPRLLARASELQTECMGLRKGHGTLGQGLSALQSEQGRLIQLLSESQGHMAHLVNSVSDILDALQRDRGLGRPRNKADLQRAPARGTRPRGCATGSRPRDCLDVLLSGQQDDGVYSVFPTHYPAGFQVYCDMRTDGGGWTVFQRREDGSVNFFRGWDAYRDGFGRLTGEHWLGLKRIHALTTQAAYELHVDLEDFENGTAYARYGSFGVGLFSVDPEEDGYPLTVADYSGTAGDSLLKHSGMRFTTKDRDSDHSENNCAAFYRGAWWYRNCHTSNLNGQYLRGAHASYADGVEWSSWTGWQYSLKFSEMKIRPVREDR", "test": "Fluorescence polarization (FP) assay", "type": "binding", "conditions": "RB conjugates 50 nM, 1% BSA/PBST, room temperature 30 min, Hill fit; recombinant full-length FIBCD1 from CHO cells", "procedure": "experiment. Poly-A selective RNA-seq libraries were prepared using the NEB NextUltra II kit (New England Biolabs) and sequenced on an Illumina NextSeq500 with 2×75 pair-end reads. The obtained sequencing data was preprocessed using fastp, aligned using STAR, and counted using featureCounts. Differentially expressed genes were identified using DESeq2. The sequence data and analysis reports are deposited in the GEO repository (Accession # GSE202764) […]\nU87 cells were incubated with 500 nM RB-EPP6 and YOYO, together with chondroitin sulfate (CSA) in complete media. After 1 h, trypsin was used to detach the cells. Cell pellets were collected by centrifugation. Fresh phenol-free medium was added to each condition. […]\nHuman FIBCD1 cDNA with an MYC-DDK tag was ordered from Origene (#RC206180) and was expressed using the mammalian expression system kit ExpiCHOTM (#A29133) as generally described by MAN0014337. […] The obtained full-length FIBCD1 was quantified using BCA.\nFluorescence polarization (FP) assay\nSolutions of RB-EPPs (in 1% BSA/PBST) were added to different concentrations of full-length FIBCD1 (in 1% BSA/PBST). […] The solutions were incubated at room temperature for 30 minutes on an orbital shaker, and the fluorescence polarization values were quantified using a BioTek Synergy H1 plate reader, with an FP filter set (excitation 530/25, emission 590/35). […]"}, "U87 cells": {"tested_on": "U87 cells", "test": "Cell viability by YOYO staining, flow cytometry", "type": "cell-based, human", "conditions": "RB-EPP6 20 nM to 100 μM", "procedure": "Confocal imaging experiments\nTo image the cells, a Zeiss 880 inverted confocal laser scanning microscope (Carl Zeiss, Germany) was used. Image acquisition and analyses were carried out using the manufacturer’s software (ZEN, Carl Zeiss). Quantification of fluorescence intensity in single cells was performed using Fiji […]\nFlow cytometry experiments\nTo perform flow cytometry experiments, a NovoCyte flow cytometer (NovoExpress) was used.\nQuantification of fluorescence intensity was achieved using the Novoxpress software. Fifty thousand cells were analyzed for each condition. A green fluorescent dye used for DNA staining, YOYO, was included in all the flow cytometry experiments, serving as a cell live/dead indicator.\n[…]\n2 μL of RB-EPP (in DMSO) was added to the solution at a concentration of 500 μM. […] Samples were collected from both phases and quantified by Analytical HPLC separately. […]"}, "MDCK cell monolayers": {"tested_on": "MDCK cell monolayers", "type": "in vitro ADME, canine", "procedure": "FIBCD1 Lentiviral target, at different multiplicities of infection (MOI) levels. The cells were then incubated at 37 °C and 5% CO2. After 48 hours, the media was removed and replaced with fresh new media. Cell selection was carried out using G418 (Alfa Aesar) at 1 mg/mL for 7 days, and the surviving cells were collected and analyzed for FIBCD-KO efficiency by western blot. The best candidate was used for the RB-EPP6 uptake experiments described above.\n200k MDCK cells were seeded in 200 μL of complete media in the apical side transwell insert (12-well 8 μm pore size Transwell-65 mm). In addition, 1 mL of complete growth media is added to the basolateral chamber. Six transwell inserts were prepared for a TAT peptide labeled with RB (RB-[…]), and six other inserts were prepared for RB-EPP6. The plate was incubated for 2-3 days at 37 °C with 5% CO2. The electrical resistance of the MDCK transwell inserts was measured using the EVOM Epithelial Voltohmmeter to monitor the integrity of tight junctions for the following two days. On day 3, serum-free media was used to wash both the apical (200 μL) and basolateral (1 mL) wells three times. […]\nThe assay was carried out in apical to basolateral directions. […] After that, 80 μL of the samples were collected from each chamber for RB fluorescence intensity reading using a Synergy […]"}, "Caco2": {"tested_on": "Caco2", "test": "RB-EPP6 uptake in Caco2 cells", "type": "cell-based", "conditions": "RB conjugate"}, "zebrafish larvae": {"tested_on": "zebrafish larvae", "test": "Biodistribution in zebrafish larvae, fluorescence microscopy", "type": "in vivo", "conditions": "larvae 6 dpf, 1 h incubation; compared with free rhodamine dye and RB-GSQTH control"}}, "note": "Numbered stars: 1 amine (or outer) side, 2 acyl side, 3 side chain; on linkers, the order of the positions; unused ones are H or OH. Bridge positions count the residues as written; N and C are the ends. Square brackets hold non-standard residues; d marks the D form. Triazole bridges read from a SMILES are 1,4-linked. Peptide text beside a SMILES is read from it. * marks the point of attachment. RhodamineB = CCN(CC)c1ccc2c(-c3ccccc3C(=O)*)c3ccc(=[N+](CC)CC)cc-3oc2c1; Lys(N3) = [N-]=[N+]=NCCCC[C@H](N)C(=O)O; NMeGABA = CN(CCCC(=O)[*:2])[*:1]; Pra = C#CC[C@H](N)C(=O)O", "data": [{"smiles": "CCN(CC)c1ccc2c(-c3ccccc3C(=O)N(C)CCCC(=O)N[C@H]3Cc4cn(nn4)CCCC[C@@H](C(N)=O)NC(=O)[C@H](CO)NC(=O)[C@H](Cc4ccc(O)cc4)NC(=O)[C@H](Cc4ccc(O)cc4)NC(=O)[C@H](CO)NC(=O)[C@H](Cc4ccc(O)cc4)NC3=O)c3ccc(=[N+](CC)CC)cc-3oc2c1", "note": "[RB-EPP6, RB-cy(YSYYS)] (RhodamineB-[NMeGABA][Pra]YSYYS[Lys(N3)]-NH2; triazole 2-8)", "values": [{"measurement": "Kd", "setting": "full-length FIBCD1", "value": "~200", "unit": "nM"}, {"measurement": "effect on cell viability", "setting": "U87 cells", "value": "without affecting cell viability"}, {"measurement": "Papp", "setting": "MDCK cell monolayers", "value": "5.25 × 10^–6"}, {"measurement": "Papp compared with RB-TAT47–57", "setting": "MDCK cell monolayers", "value": "more than twice"}, {"measurement": "uptake in Caco2 cells", "setting": "Caco2", "value": "did not exhibit EPP6 uptake"}, {"measurement": "tissue accumulation in zebrafish larvae", "setting": "zebrafish larvae", "value": "preferentially accumulated in the olfactory pit and neuromasts"}]}]}
